Literature values, collected in patent US9333174B2, “Use of simple amino acids to form porous particles” (Civitas Therapeutics, Inc., priority 1999, dated 2016).

conditions: hydrophobicity scale on which glycine has the value 0.5; value of the amino acid itself

SMILES | hydrophobicity
N[C@@H](CCC(=O)O)C(=O)O [Glutamate] | 0.043
CC[C@H](C)[C@H](N)C(=O)O [Isoleucine] | 0.943
N[C@@H](Cc1ccccc1)C(=O)O [Phenylalanine] | 0.501
NCC(=O)O [glycine] | 0.5
